Assay results reported in US8658642B2 (Axikin Pharmaceuticals, Inc., priority 2009, dated 2014).

Biological target: T1, CCR3 (Homo sapiens, UniProt P51677)
T1 sequence (P51677 1-355): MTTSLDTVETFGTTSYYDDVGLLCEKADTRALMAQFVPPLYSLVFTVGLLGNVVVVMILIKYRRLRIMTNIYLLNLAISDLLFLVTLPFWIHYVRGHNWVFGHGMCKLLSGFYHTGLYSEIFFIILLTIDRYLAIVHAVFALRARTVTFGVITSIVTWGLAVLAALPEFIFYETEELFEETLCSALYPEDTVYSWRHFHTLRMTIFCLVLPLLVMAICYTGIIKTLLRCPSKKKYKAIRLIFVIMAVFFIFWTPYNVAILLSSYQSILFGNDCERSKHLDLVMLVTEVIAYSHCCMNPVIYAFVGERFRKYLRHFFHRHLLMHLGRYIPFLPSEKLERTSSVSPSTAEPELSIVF
Assay: CCR3 receptor binding assay ([125I]-labeled human eotaxin/CCL11 displacement on cells)
Settings: 0.1 nM [125I]-labeled human eotaxin/CCL11, 2×10^5 cells/well, 60 min at room temperature
Protocol: CCR3 Receptor Binding Assay
Cells were washed once with PBS and resuspended in a binding buffer (25 mM HEPES pH 7.6, 5 mM MgCl2, 1 mM CaCl2, 0.5% BSA, 0.1% NaN3). […] of cell suspension (2×10^5 cells/well) and 0.1 nM [^125I]-labeled human eotaxin/CCL11 (2000 Ci/mmol specific activity) were mixed in a 96-well U-bottom polypropylene plate, and incubated for 60 min at room temperature for the binding reaction. The cell suspension was then transferred to a filtration plate (#MAFB, Millipore), and washed 3 times with the binding buffer containing 0.5 M NaCl, scintillant added, and the radioactivity was counted on a TopCount (Packard). For the determination of non-specific binding, the cell suspension and [^125I]-labeled human eotaxin/CCL11 were incubated in the presence of 500 nM of unlabeled human eotaxin/CCL11. See, lino et al., “Molecular cloning and functional characterization of cynomolgus monkey (Macaca fascicularis) CC chemokine receptor, CCR3,” Cytokine 2002, 19, 276-286.

Row | Ki [µM] | Structure (SMILES)
1 | ≤ 0.05 | Cc1cccc(C(=O)N2CCN(S(=O)(=O)c3cc(C#N)ccc3Oc3cc(Cl)cc(Cl)c3)CC2)c1 [Compound 79, 4-(3,5-Dichlorophenoxy)-3-(4-(3-methylbenzoyl)piperazin-1-ylsulfonyl)benzonitrile]
2 | 0.5 to 5 | CC(C)NC(=O)N1CCN(S(=O)(=O)c2cc(C#N)ccc2Oc2cc(Cl)cc(Cl)c2)CC1 [Compound 80, 4-(5-Cyano-2-(3,5-dichlorophenoxy)phenylsulfonyl)-N-isopropylpiperazine-1-carboxamide]
3 | 0.5 to 5 | N#Cc1ccc(Oc2cc(Cl)cc(Cl)c2)c(S(=O)(=O)N2CCN(C(=O)c3cccc(Cl)c3)CC2)c1 [Compound 81, 3-(4-(3-Chlorobenzoyl)piperazin-1-ylsulfonyl)-4-(3,5-dichlorophenoxy)benzonitrile]
4 | 0.5 to 5 | Cc1ccc(C(=O)N2CCN(S(=O)(=O)c3cc(C#N)ccc3Oc3cc(Cl)cc(Cl)c3)CC2)cc1 [Compound 82, 4-(3,5-Dichlorophenoxy)-3-(4-(4-methylbenzoyl)piperazin-1-ylsulfonyl)benzonitrile]
5 | 0.5 to 5 | Cc1ccccc1C(=O)N1CCN(S(=O)(=O)c2cc(C#N)ccc2Oc2cc(Cl)cc(Cl)c2)CC1 [Compound 83, 4-(3,5-Dichlorophenoxy)-3-(4-(2-methylbenzoyl)piperazin-1-ylsulfonyl)benzonitrile]
6 | 0.5 to 5 | N#Cc1ccc(Oc2cc(Cl)cc(Cl)c2)c(S(=O)(=O)N2CCN(C(=O)c3ccccc3Cl)CC2)c1 [Compound 84, 3-(4-(2-Chlorobenzoyl)piperazin-1-ylsulfonyl)-4-(3,5-dichlorophenoxy)benzonitrile]
7 | 0.5 to 5 | N#Cc1ccc(Oc2cc(Cl)cc(Cl)c2)c(S(=O)(=O)N2CCN(C(=O)c3ccccc3F)CC2)c1 [Compound 85, 4-(3,5-Dichlorophenoxy)-3-(4-(2-fluorobenzoyl)piperazin-1-ylsulfonyl)benzonitrile]
8 | > 5 | N#Cc1ccc(Oc2cc(Cl)cc(Cl)c2)c(S(=O)(=O)N2CCN(C(=O)c3cccc(F)c3)CC2)c1 [Compound 86, 4-(3,5-Dichlorophenoxy)-3-(4-(3-fluorobenzoyl)piperazin-1-ylsulfonyl)benzonitrile]
9 | > 5 | N#Cc1ccc(Oc2cc(Cl)cc(Cl)c2)c(S(=O)(=O)N2CCN(C(=O)c3ccc(F)cc3)CC2)c1 [Compound 87, 4-(3,5-Dichlorophenoxy)-3-(4-(4-fluorobenzoyl)piperazin-1-ylsulfonyl)benzonitrile]
10 | > 5 | Cc1cc(C)cc(Sc2ccc(C#N)cc2S(=O)(=O)N2CCN(C(=O)c3ccc(C(F)(F)F)cc3)CC2)c1 [Compound 88, 4-(3,5-Dimethylphenylthio)-3-(4-(4-(trifluoromethyl)benzoyl)piperazin-1-ylsulfonyl)benzonitrile]
11 | 0.05 to 0.5 | Cc1cc(C)cc(Sc2ccc(C#N)cc2S(=O)(=O)N2CCN(C(=O)c3ccccc3)CC2)c1 [Compound 89, 3-(4-Benzoylpiperazin-1-ylsulfonyl)-4-(3,5-dimethylphenylthio)benzonitrile]
12 | 0.05 to 0.5 | Cc1ccc(C(=O)N2CCN(S(=O)(=O)c3cc(C#N)ccc3Sc3cc(C)cc(C)c3)CC2)cc1 [Compound 90, 4-(3,5-Dimethylphenylthio)-3-(4-(4-methylbenzoyl)piperazin-1-ylsulfonyl)benzonitrile]
13 | 0.05 to 0.5 | Cc1cc(C)cc(Sc2ccc(C#N)cc2S(=O)(=O)N2CCN(C(=O)c3cccc(C)c3)CC2)c1 [Compound 91, 4-(3,5-Dimethylphenylthio)-3-(4-(3-methylbenzoyl)piperazin-1-ylsulfonyl)benzonitrile]
14 | > 5 | Cc1cc(C)cc(Sc2ccc(C#N)cc2S(=O)(=O)N2CCN(C(=O)c3ccccc3C)CC2)c1 [Compound 92, 4-(3,5-Dimethylphenylthio)-3-(4-(2-methylbenzoyl)piperazin-1-ylsulfonyl)benzonitrile]
15 | 0.05 to 0.5 | Cc1cc(C)cc(Sc2ccc(C#N)cc2S(=O)(=O)N2CCN(C(=O)Nc3cccc(F)c3)CC2)c1 [Compound 93]
16 | 0.05 to 0.5 | CC(C)NC(=S)N1CCN(S(=O)(=O)c2cc(C#N)ccc2Oc2cc(Cl)cc(Cl)c2)CC1 [Compound 95]
17 | 0.5 to 5 | N#Cc1ccc(Oc2cc(Cl)cc(Cl)c2)c(S(=O)(=O)N2CCN(C(=O)Oc3ccccc3)CC2)c1 [Compound 96]
18 | 0.05 to 0.5 | N#Cc1ccc(Oc2cc(Cl)cc(Cl)c2)c(S(=O)(=O)N2CCN(C(=O)NCc3ccccc3)CC2)c1 [Compound 97]
19 | > 5 | N#Cc1ccc(Sc2cc(Cl)cc(Cl)c2)c(S(=O)(=O)N2CCN(C(=O)c3ccc(C(F)(F)F)cc3)CC2)c1 [Compound 98]
20 | > 5 | N#Cc1ccc(Sc2cc(Cl)cc(Cl)c2)c(S(=O)(=O)N2CCN(C(=O)c3ccccc3)CC2)c1 [Compound 99]
21 | > 5 | CC(C)NC(=O)N1CCN(S(=O)(=O)c2cc(C#N)ccc2Sc2cc(Cl)cc(Cl)c2)CC1 [Compound 100]
22 | > 5 | CC(C)NC(=S)N1CCN(S(=O)(=O)c2cc(C#N)ccc2Sc2cc(Cl)cc(Cl)c2)CC1 [Compound 101]
23 | > 5 | Cc1cc(C)cc(Oc2ccc(C#N)cc2S(=O)(=O)N2CCN(C(=S)NC(C)C)CC2)c1 [Compound 103]
24 | > 5 | Cc1ccc(C(=O)N2CCN(S(=O)(=O)c3cc(C#N)ccc3Sc3cc(Cl)cc(Cl)c3)CC2)cc1 [Compound 104]
25 | > 5 | Cc1cccc(C(=O)N2CCN(S(=O)(=O)c3cc(C#N)ccc3Sc3cc(Cl)cc(Cl)c3)CC2)c1 [Compound 105]
26 | > 5 | Cc1ccccc1C(=O)N1CCN(S(=O)(=O)c2cc(C#N)ccc2Sc2cc(Cl)cc(Cl)c2)CC1 [Compound 106]

Row | Ki [µM] | Structure (SMILES)
27 | > 5 | CC(=O)N1CCN(S(=O)(=O)c2cc(C#N)ccc2Oc2cc(C)cc(C)c2)CC1 [Compound 107]
28 | > 5 | Cc1cc(C)cc(Oc2ccc(C#N)cc2S(=O)(=O)N2CCN(C(=O)C(C)C)CC2)c1 [Compound 108]
29 | ≤ 0.05 | CC(=O)N1CCN(S(=O)(=O)c2cc(C#N)ccc2Oc2cc(Cl)cc(Cl)c2)CC1 [Compound 109]
30 | ≤ 0.05 | CC(C)C(=O)N1CCN(S(=O)(=O)c2cc(C#N)ccc2Oc2cc(Cl)cc(Cl)c2)CC1 [Compound 110]
31 | ≤ 0.05 | CC(=O)N1CCN(S(=O)(=O)c2cc(C#N)ccc2Sc2cc(Cl)cc(Cl)c2)CC1 [Compound 111]
32 | > 5 | CC(C)C(=O)N1CCN(S(=O)(=O)c2cc(C#N)ccc2Sc2cc(Cl)cc(Cl)c2)CC1 [Compound 112]
33 | > 5 | N#Cc1ccc(Sc2cc(Cl)cc(Cl)c2)c(S(=O)(=O)N2CCN(C(=O)c3cccc(F)c3)CC2)c1 [Compound 113]
34 | 0.5 to 5 | Cc1ccc(C(=O)N2CCN(S(=O)(=O)c3cc(C#N)ccc3Oc3cc(C)cc(C)c3)CC2)cc1 [Compound 114]
35 | > 5 | Cc1ccc(NC(=O)N2CCN(S(=O)(=O)c3cc(C#N)ccc3Oc3cc(C)cc(C)c3)CC2)cc1 [Compound 115]
36 | > 5 | Cc1cc(C)cc(Oc2ccc(C#N)cc2S(=O)(=O)N2CCN(C(=O)Nc3ccc(C#N)cc3)CC2)c1 [Compound 116]
37 | > 5 | COc1ccc(C(=O)N2CCN(S(=O)(=O)c3cc(C#N)ccc3Oc3cc(C)cc(C)c3)CC2)cc1 [Compound 117]
38 | > 5 | COc1ccc(NC(=O)N2CCN(S(=O)(=O)c3cc(C#N)ccc3Oc3cc(C)cc(C)c3)CC2)cc1 [Compound 118]
39 | > 5 | Cc1cc(C)cc(Oc2ccc(C#N)cc2S(=O)(=O)N2CCN(C(=O)Nc3ccc([N+](=O)[O-])cc3)CC2)c1 [Compound 119]
40 | > 5 | CCN(CC)C(=O)N1CCN(S(=O)(=O)c2cc(C#N)ccc2Oc2cc(C)cc(C)c2)CC1 [Compound 120]
41 | > 5 | Cc1cc(C)cc(Oc2ccc(C#N)cc2S(=O)(=O)N2CCN(C(=S)N(C)C)CC2)c1 [Compound 121]
42 | > 5 | N#Cc1ccc(Oc2cc(Cl)cc(Cl)c2)c(S(=O)(=O)N2CCN(C(=O)c3ccco3)CC2)c1 [Compound 122]
43 | > 5 | N#Cc1ccc(Oc2cc(Cl)cc(Cl)c2)c(S(=O)(=O)N2CCN(C(=O)c3cccs3)CC2)c1 [Compound 123]
44 | 0.05 to 0.5 | N#Cc1ccc(Oc2cc(Cl)cc(Cl)c2)c(S(=O)(=O)N2CCN(C(=O)c3ccno3)CC2)c1 [Compound 124]
45 | ≤ 0.05 | N#Cc1ccc(Oc2cc(Cl)cc(Cl)c2)c(S(=O)(=O)N2CCN(C(N)=O)CC2)c1 [Compound 125]
46 | > 5 | Cc1cc(C(=O)N2CCN(S(=O)(=O)c3cc(C#N)ccc3Oc3cc(Cl)cc(Cl)c3)CC2)n(C)n1 [Compound 126]
47 | ≤ 0.05 | Cc1nnsc1C(=O)N1CCN(S(=O)(=O)c2cc(C#N)ccc2Oc2cc(Cl)cc(Cl)c2)CC1 [Compound 127]
48 | 0.5 to 5 | N#Cc1ccc(Oc2cc(Cl)cc(Cl)c2)c(S(=O)(=O)N2CCN(C(=O)c3ccccn3)CC2)c1 [Compound 128]
49 | > 5 | N#Cc1ccc(Oc2cc(Cl)cc(Cl)c2)c(S(=O)(=O)N2CCN(C(=O)c3cc4ccccc4o3)CC2)c1 [Compound 129]
50 | > 5 | N#Cc1ccc(Oc2cc(Cl)cc(Cl)c2)c(S(=O)(=O)N2CCN(C(=O)c3ccc4nonc4c3)CC2)c1 [Compound 130]
51 | > 5 | N#Cc1ccc(Oc2cc(Cl)cc(Cl)c2)c(S(=O)(=O)N2CCN(C(=O)c3cc4ccccc4s3)CC2)c1 [Compound 131]
